From patent US20090186942A1, “NOVEL NUTRACEUTICAL AND PHARMACEUTICAL COMPOSITIONS AND USE THEREOF FOR THE TREATMENT, CO-TREATMENT OR PREVENTION OF INFLAMMATORY DISORDERS” (priority 2006, published 2009)

Columns and labels:
Type in all cases: cell-based
[1] = test system: murine macrophage indicator cell line, RAW267.4; experiment: Inhibition of nitric oxide production in LPS-stimulated macrophages (Griess reaction); conditions: single substances, RAW267.4 cells, LPS 1 μg/ml, 24 hours
Procedure: (§1) Pure substances were then further assayed in vitro in cellular cell systems. The inhibition of the synthesis of nitric oxide and/or pro-inflammatory prostaglandins (PG) by the compounds was measured. PGE2 plays a critical role in the inflammation process, while nitric oxide (NO) is a hallmark of inflammation in various chronic inflammatory diseases including various forms of arthritis, gastro-intestinal diseases and metabolic syndrome X. The effects of compounds on the inflammatory response were tested in cellular assays using a murine macrophage indicator cell line, RAW267.4. The cells were purchased from ATCC (Manassas, Va., USA) and cultured in DMEM containing streptomycin/penicillin, non-essential amino acids and 10% fetal calf serum (FCS). In order to test a large range of concentration of compounds, cells (˜50,000/well) were seeded into flat-bottomed microtiter plates and cultured for one day. Cells were then starved in complete medium containing 0.25% FCS (D-025). After overnight culture, medium was removed and replaced by 100 μL of D-025 containing the test compounds at twice the final concentration. Subsequently, 100 μL of D-025 containing 2 μg/ml LPS was added (i.e. final LPS concentration of 1 μg/ml) and the cells cultured for 24 hours.
(§2) Substances were tested in a concentration range from 0.2 to 50 μM in two-fold dilution steps. Extracts were tested from 0.2 to 50 mg/L. All treatments were done in duplicates and several experimental series were done for each treatment. Concentrations of nitrite which was rapidly formed from nitric oxide released by cells were determined by the Griess reaction using sodium nitrite as standard. Briefly, 50 μl of supernatant was mixed with Griess reagent 1 (25 μL) and Griess reagent 2 (25 μL), centrifuged and the optical density at 540 nm determined. PGE2 secreted into the cell culture medium was determined by EIA obtained from Cayman Chemicals (Ann Harbor, […]., USA) and used according to the manufacturer's instructions. All determinations were done in duplicates and at various dilutions of the culture supernatant. IC50 values were calculated using a […] least-square fitting equation [y=A+((B−A)/(1+((C−x)̂D))] for best-fit curves (Excel fit software program).

[2] = test system: murine macrophage indicator cell line, RAW267.4; experiment: Inhibition of PGE2 production in LPS-stimulated macrophages (EIA); conditions: single substances, RAW267.4 cells, LPS 1 μg/ml, 24 hours
Procedure: as §1, §2

NF-κBp49 = experiment: Expression of inflammatory genes by quantitative RT-PCR: NF-κBp49; conditions: RAW 264.7 cells, 4 hours
Procedure: (§3) The effect of the compounds has been evaluated on the level of the expression of genes that are involved in the inflammatory response. These comprise e.g. the following genes TNF-α, IL-6, MIP1β and NF-κB1 and NF-κBp49, the latter two of which are transcription factors involved in the regulation of inflammatory gene expression. After 4 hours, RNA was extracted and the expression of genes determined by quantitative RT-PCR as described (Richard, N., Porath, D., Radspieler, A. and Schwager, J. Effects of resveratrol, piceatannol, tri-acetoxystilbene, and genistein on the inflammatory response of human peripheral blood leukocytes. Mol Nutr Food Res 2005. 49: 431-442).

NF-κB1 = experiment: Expression of inflammatory genes by quantitative RT-PCR: NF-κB1; conditions: RAW 264.7 cells, 4 hours
Procedure: as §3

TNF-α = experiment: Expression of inflammatory genes by quantitative RT-PCR: TNF-α; conditions: RAW 264.7 cells, 4 hours
Procedure: as §3

[3] = test system: macrophage inflammatory protein 1 [MIP-1]; experiment: Expression of inflammatory genes by quantitative RT-PCR: MIP-1; conditions: RAW 264.7 cells, 4 hours
Procedure: as §3

IL-6 = experiment: Expression of inflammatory genes by quantitative RT-PCR: IL-6; conditions: RAW 264.7 cells, 4 hours
Procedure: as §3

`CCC/C=C\C/C=C\CCCCCCCc1cccc(O)c1C(=O)O` [(15:2)-Anacardic acid] was tested, and the IC50 [1] was 82.4 ± 6.7 µM and the IC50 [2] was 43.1 ± 5.5 µM.

In the case of `C=CC/C=C\C/C=C\CCCCCCCc1cccc(O)c1C(=O)O` [(15:3)-Anacardic acid], the “% expression NF-κBp49 mRNA relative to cells stimulated with LPS only” value (NF-κBp49; 6.25 μM/L) is reported as 74%, the “% expression NF-κBp49 mRNA relative to cells stimulated with LPS only” value (NF-κBp49; 12.5 μM/L) is reported as 57% and the “% expression NF-κB1 mRNA relative to cells stimulated with LPS only” value (NF-κB1; 6.25 μM/L) is reported as 86%. For the same compound, the “% expression NF-κB1 mRNA relative to cells stimulated with LPS only” value (NF-κB1; 12.5 μM/L) was 78%, the IC50 [1] was 7.4 ± 0.4 µM and the “% expression TNF-α mRNA relative to cells stimulated with LPS only” value (TNF-α; 6.25 μM/L) was 76%. For the same compound, the “% expression TNF-α mRNA relative to cells stimulated with LPS only” value (TNF-α; 12.5 μM/L) was 54%, the “Effect on TNF-α expression (in words)” value (TNF-α) was “significantly reduced” and the IC50 [2] was 26.6 ± 21.1 µM. The “% expression MIP-1-α mRNA relative to cells stimulated with LPS only” value ([3]; 6.25 μM/L) was 58%, the “% expression MIP-1-α mRNA relative to cells stimulated with LPS only” value ([3]; 12.5 μM/L) was 41% and the “Effect on MIP-1β expression (in words)” value [3] was “significantly reduced”. For the same compound, the “% expression IL-6 mRNA relative to cells stimulated with LPS only” value (IL-6; 6.25 μM/L) was 65% and the “% expression IL-6 mRNA relative to cells stimulated with LPS only” value (IL-6; 12.5 μM/L) was 71%.

`C=CC/C=C\C/C=C\CCCCCCCc1cc(O)cc(O)c1` [Cardoltriene] showed an IC50 [1] of 4.9 ± 0.8 µM and an IC50 [2] of 0.9 ± 0.2 µM.

Compound `O=C(O[C@@H]1Cc2c(O)cc(O)cc2O[C@@H]1c1cc(O)c(O)c(O)c1)c1cc(O)c(O)c(O)c1` [EGCG, reference compound] has an IC50 [1] of 33 ± 2 µM and an IC50 [2] of 35 µM.

`CCCCCC/C=C\CCCCCCCc1cccc(O)c1C(=O)O` [Ginkoic acid, Ginkgoic acid] was tested, and the IC50 [1] was greater than 100 µM and the IC50 [2] was 57.8 µM.

Work on `Oc1ccc(C=Cc2cc(O)cc(O)c2)cc1` [Resveratrol, reference compound] yielded an IC50 ([1]; Mus musculus) of 31 ± 2 µM and an IC50 ([2]; Mus musculus) of 24 ± 2 µM.
